Holding throughout (type): functional
Test [1] concerns Streptococcus pneumoniae. Put plainly: Antimicrobial activity against Streptococcus pneumoniae serotype 19F ST 236 by agar plate dilution method.
The test system of test [2] is Streptococcus pneumoniae. Put plainly: Antimicrobial activity against Streptococcus pneumoniae serotype 14 ST 3247 by agar plate dilution method.
In test [3] the test system is Streptococcus pneumoniae. As to the kind of experiment: Antimicrobial activity against Streptococcus pneumoniae serotype 14 ST 143 harboring ERY-resistant erm(B) gene by agar plate dilution method.
For test [4], the system named is Streptococcus pneumoniae. Put plainly: Antimicrobial activity against Streptococcus pneumoniae serotype 19F ST 3245 by agar plate dilution method.
Test [5] has as its system Streptococcus pneumoniae. Put plainly: Antimicrobial activity against Streptococcus pneumoniae serotype 6B ST 3246 harboring ERY-resistant erm(B) gene by agar plate dilution method.
Test [6] deals with Streptococcus pneumoniae. As to the kind of experiment: Antimicrobial activity against Streptococcus pneumoniae serotype 23F ST 3250 by agar plate dilution method.
For test [7], the system named is Streptococcus pneumoniae. Put plainly: Antimicrobial activity against Streptococcus pneumoniae serotype 19F ST 156 by agar plate dilution method.
The test system of test [8] is Streptococcus pneumoniae. Put plainly: Antimicrobial activity against Streptococcus pneumoniae serotype 17 ST 3248 by agar plate dilution method.
Test [9] has as its system Streptococcus pneumoniae. Put plainly: Antimicrobial activity against Streptococcus pneumoniae serotype 14 ST 13 harboring ERY-resistant mef(E) gene by agar plate dilution method.
The test system of test [10] is Streptococcus pneumoniae. Put plainly: Antimicrobial activity against Streptococcus pneumoniae serotype 14 ST 156 harboring ERY-resistant mef(E) gene by agar plate dilution method.
Test [11] relates to Streptococcus pneumoniae. As to the kind of experiment: Antimicrobial activity against Streptococcus pneumoniae serotype 4 ST 205 by agar plate dilution method.
For test [12], the system named is Streptococcus pneumoniae. Put plainly: Antimicrobial activity against Streptococcus pneumoniae serotype 9V ST 156 harboring ERY-resistant erm(B) or mef(E) gene by agar plate dilution method.
Test [13] concerns Streptococcus pneumoniae. Put plainly: Antimicrobial activity against Streptococcus pneumoniae serotype 14 ST 2918 by agar plate dilution method.
In test [14] the test system is Streptococcus pneumoniae. Put plainly: Antimicrobial activity against Streptococcus pneumoniae serotype 14 ST 2678 harboring ERY-resistant erm(B) gene by agar plate dilution method.
Test [15] deals with Streptococcus pneumoniae. Put plainly: Antimicrobial activity against Streptococcus pneumoniae serotype 14 ST 2916 harboring ERY-resistant erm(B) gene by agar plate dilution method.
The test system of test [16] is Streptococcus pneumoniae. As to the kind of experiment: Antimicrobial activity against Streptococcus pneumoniae serotype 6B ST 138 by agar plate dilution method.
For test [17], the system named is Streptococcus pneumoniae. Put plainly: Antimicrobial activity against Streptococcus pneumoniae serotype 6B ST 90 harboring ERY-resistant erm(B) gene by agar plate dilution method.
For test [18], the system named is Streptococcus pneumoniae. Put plainly: Antimicrobial activity against Streptococcus pneumoniae serotype 23F ST 961 harboring ERY-resistant erm(B) gene by agar plate dilution method.
Test [19] deals with Streptococcus pneumoniae. As to the kind of experiment: Antimicrobial activity against Streptococcus pneumoniae serotype 19F ST 271 harboring ERY-resistant erm(B) and mef(E) gene by agar plate dilution method.
Test [20] relates to Streptococcus pneumoniae. Put plainly: Antimicrobial activity against Streptococcus pneumoniae serotype 14 ST 2306 harboring ERY-resistant erm(B) gene by agar plate dilution method.
The test system of test [21] is Streptococcus pneumoniae. Put plainly: Antimicrobial activity against Streptococcus pneumoniae serotype 18C ST 496 harboring ERY-resistant erm(B) gene by agar plate dilution method.
In test [22] the test system is Streptococcus pneumoniae. Put plainly: Antimicrobial activity against Streptococcus pneumoniae serotype 6B ST 3249 by agar plate dilution method.
Test [23] deals with Streptococcus pneumoniae. As to the kind of experiment: Antimicrobial activity against Streptococcus pneumoniae serotype 10 ST 461 by agar plate dilution method.
The subject of test [24] is Streptococcus pneumoniae. Put plainly: Antimicrobial activity against Streptococcus pneumoniae serotype 19F ST 2917 harboring ERY-resistant erm(B) and mef(E) gene by agar plate dilution method.
The test system of test [25] is Streptococcus pneumoniae. Put plainly: Antimicrobial activity against Streptococcus pneumoniae serotype 19F ST 671 by agar plate dilution method.
Test [26] has as its system Streptococcus pneumoniae. Put plainly: Antimicrobial activity against Streptococcus pneumoniae serotype 19F ST 2694 harboring ERY-resistant mef(E) gene by agar plate dilution method.
Test [27] deals with Streptococcus pneumoniae. Put plainly: Antimicrobial activity against Streptococcus pneumoniae serotype 23F ST 81 harboring ERY-resistant mef(E) gene by agar plate dilution method.

Converted amounts (≈) assume the structure as drawn.

For the compound `CC1(C)S[C@@H]2[C@H](NC(=O)Cc3ccccc3)C(=O)N2[C@H]1C(=O)O` [PENICILLIN G], the minimum inhibitory concentration (MIC) came out at 2 µg/mL (≈ 5.98 µM) with Streptococcus pneumoniae [1]; 2 µg/mL (≈ 5.98 µM) in the test on Streptococcus pneumoniae [2]; 2 µg/mL (≈ 5.98 µM) against Streptococcus pneumoniae [3]; 4 µg/mL (≈ 12 µM) with Streptococcus pneumoniae [4]; 2 µg/mL (≈ 5.98 µM) against Streptococcus pneumoniae [5]; 2 µg/mL (≈ 5.98 µM) in the test with Streptococcus pneumoniae [6]. The MIC against Streptococcus pneumoniae [7], in the test with Streptococcus pneumoniae [8], in the test on Streptococcus pneumoniae [9], against Streptococcus pneumoniae [10], with Streptococcus pneumoniae [11] and against Streptococcus pneumoniae [12] was 2 µg/mL (≈ 5.98 µM) each time. Besides, the MIC with Streptococcus pneumoniae [13] is 2 µg/mL (≈ 5.98 µM); against Streptococcus pneumoniae [14], 2 µg/mL (≈ 5.98 µM); in the test on Streptococcus pneumoniae [15], 2 µg/mL (≈ 5.98 µM); in the test with Streptococcus pneumoniae [16] it was 4 µg/mL (≈ 12 µM); with Streptococcus pneumoniae [17], 2 µg/mL (≈ 5.98 µM); against Streptococcus pneumoniae [18] it was 2 µg/mL (≈ 5.98 µM). Also, the minimum inhibitory concentration (MIC) in the test with Streptococcus pneumoniae [19] (read-out: MIC), with Streptococcus pneumoniae [20], with Streptococcus pneumoniae [21] (read-out: MIC), in the test on Streptococcus pneumoniae [22], with Streptococcus pneumoniae [23] and in the test on Streptococcus pneumoniae [24] was 2 µg/mL (≈ 5.98 µM) in each case. The MIC in the test with Streptococcus pneumoniae [25], against Streptococcus pneumoniae [26] and in the test on Streptococcus pneumoniae [27] was 2 µg/mL (≈ 5.98 µM) in each case.
As to `CN(C)[C@@H]1C(O)=C(C(N)=O)C(=O)[C@@]2(O)C(O)=C3C(=O)c4c(O)cccc4[C@@](C)(O)[C@H]3C[C@@H]12` [TETRACYCLINE], the minimum inhibitory concentration (MIC) was 0.25 µg/mL (≈ 0.563 µM) against Streptococcus pneumoniae [3]; 16 µg/mL (≈ 36 µM) against Streptococcus pneumoniae [6]; 0.25 µg/mL (≈ 0.563 µM) in the test on Streptococcus pneumoniae [7]; 0.25 µg/mL (≈ 0.563 µM) with Streptococcus pneumoniae [9]; 0.25 µg/mL (≈ 0.563 µM) against Streptococcus pneumoniae [10]; 1 µg/mL (≈ 2.25 µM) in the test with Streptococcus pneumoniae [11]. For the same compound, the MIC in the test with Streptococcus pneumoniae [12] came to 0.25 µg/mL (≈ 0.563 µM); against Streptococcus pneumoniae [13], 0.5 µg/mL (≈ 1.13 µM); in the test with Streptococcus pneumoniae [16] it was 0.25 µg/mL (≈ 0.563 µM); in the test on Streptococcus pneumoniae [17], 0.5 µg/mL (≈ 1.13 µM); in the test with Streptococcus pneumoniae [18], 0.25 µg/mL (≈ 0.563 µM); in the test on Streptococcus pneumoniae [19] (read-out: MIC), 16 µg/mL (≈ 36 µM). Further, the minimal inhibitory concentration (MIC) in the test on Streptococcus pneumoniae [21] (read-out: MIC) worked out at 0.25 µg/mL (≈ 0.563 µM); against Streptococcus pneumoniae [25], 0.5 µg/mL (≈ 1.13 µM); with Streptococcus pneumoniae [27], 1 µg/mL (≈ 2.25 µM).
Take `CC[C@H]1OC(=O)[C@H](C)[C@@H](O[C@H]2C[C@@](C)(OC)[C@@H](O)[C@H](C)O2)[C@H](C)[C@@H](O[C@@H]2O[C@H](C)C[C@H](N(C)C)[C@H]2O)[C@](C)(O)C[C@@H](C)C(=O)[C@H](C)[C@@H](O)[C@]1(C)O` [ERYTHROMYCIN]: the minimal inhibitory concentration (MIC) in the test on Streptococcus pneumoniae [1] was 8 µg/mL (≈ 10.9 µM); in the test on Streptococcus pneumoniae [2], over 128 µg/mL; with Streptococcus pneumoniae [4], over 128 µg/mL; in the test with Streptococcus pneumoniae [6] it was over 128 µg/mL; in the test with Streptococcus pneumoniae [7], 0.125 µg/mL (≈ 0.17 µM); in the test on Streptococcus pneumoniae [8], over 128 µg/mL. The MIC was 16 µg/mL (≈ 21.8 µM) against Streptococcus pneumoniae [9]; 0.125 µg/mL (≈ 0.17 µM) against Streptococcus pneumoniae [10]; 32 µg/mL (≈ 43.6 µM) in the test on Streptococcus pneumoniae [11]; over 0.063 µg/mL with Streptococcus pneumoniae [12]; over 128 µg/mL in the test on Streptococcus pneumoniae [13]; 16 µg/mL (≈ 21.8 µM) with Streptococcus pneumoniae [16]. The minimum inhibitory concentration (MIC) against Streptococcus pneumoniae [19] is over 128 µg/mL; against Streptococcus pneumoniae [21], over 128 µg/mL; with Streptococcus pneumoniae [22], over 128 µg/mL; in the test with Streptococcus pneumoniae [23] it was over 128 µg/mL; in the test on Streptococcus pneumoniae [25], 32 µg/mL (≈ 43.6 µM); against Streptococcus pneumoniae [26], 8 µg/mL (≈ 10.9 µM). The compound also displayed a minimal inhibitory concentration (MIC) in the test with Streptococcus pneumoniae [27] of 0.125 µg/mL (≈ 0.17 µM).

What is called MIC is the least concentration at which growth counts as inhibited.

These data come from ChEMBL document CHEMBL1649202, “Temporal trends of antimicrobial resistance and clonality of invasive Streptococcus pneumoniae isolates in Finland, 2002 to 2006” (2009).
